What was measured:
hTLR5 = target: T1, hTLR5 (Homo sapiens, UniProt O60602); assay: Human TLR antagonist screening, NF-κB SEAP reporter in HEK293 cells; type: cell-based; conditions: antagonist mode, test article 1 μM, +FLA-ST 50 ng/ml, No Sample 34, Control− 1
T1 construct: expressed in transfected cells; host or cells: HEK293
Protocol: Toll-Like Receptor (TLR), NOD-Like Receptor (NLR) and C-Type Lectin Receptor (CLR) stimulation were tested by assessing NF-κB activation in HEK293 cells expressing a given TLR, NLR or CLR. The activity of the test articles was tested at one concentration and compared to control ligands. These steps were performed in triplicate. […] In a 96-well plate (200 μL total volume) containing the appropriate cells (50,000-75,000 cells/well), 20 μL of the test article or the positive control ligand was added to the wells. For the antagonist assay, the test article was incubated with the cells, at 37° C. with 5% CO2, for 30 minutes prior to the addition of the positive control ligand to the wells. The media added to the wells was designed for the detection of NF-κB induced SEAP expression. […] Fold induction (ratio of average induced value to average non-induced value) was determined for each TLR, NOD1, NOD2, Dectin-1a, Dectin-1b.

hTLR9 = target: T2, hTLR9 (Homo sapiens, UniProt Q9NR96); assay: as above; type: cell-based; conditions: antagonist mode, test article 1 μM, +ODN 2006 500 ng/ml; No Sample 7, Control− 1
T2 construct: expressed in transfected cells; host or cells: HEK293
T2 sequence (Q9NR96 26-1032): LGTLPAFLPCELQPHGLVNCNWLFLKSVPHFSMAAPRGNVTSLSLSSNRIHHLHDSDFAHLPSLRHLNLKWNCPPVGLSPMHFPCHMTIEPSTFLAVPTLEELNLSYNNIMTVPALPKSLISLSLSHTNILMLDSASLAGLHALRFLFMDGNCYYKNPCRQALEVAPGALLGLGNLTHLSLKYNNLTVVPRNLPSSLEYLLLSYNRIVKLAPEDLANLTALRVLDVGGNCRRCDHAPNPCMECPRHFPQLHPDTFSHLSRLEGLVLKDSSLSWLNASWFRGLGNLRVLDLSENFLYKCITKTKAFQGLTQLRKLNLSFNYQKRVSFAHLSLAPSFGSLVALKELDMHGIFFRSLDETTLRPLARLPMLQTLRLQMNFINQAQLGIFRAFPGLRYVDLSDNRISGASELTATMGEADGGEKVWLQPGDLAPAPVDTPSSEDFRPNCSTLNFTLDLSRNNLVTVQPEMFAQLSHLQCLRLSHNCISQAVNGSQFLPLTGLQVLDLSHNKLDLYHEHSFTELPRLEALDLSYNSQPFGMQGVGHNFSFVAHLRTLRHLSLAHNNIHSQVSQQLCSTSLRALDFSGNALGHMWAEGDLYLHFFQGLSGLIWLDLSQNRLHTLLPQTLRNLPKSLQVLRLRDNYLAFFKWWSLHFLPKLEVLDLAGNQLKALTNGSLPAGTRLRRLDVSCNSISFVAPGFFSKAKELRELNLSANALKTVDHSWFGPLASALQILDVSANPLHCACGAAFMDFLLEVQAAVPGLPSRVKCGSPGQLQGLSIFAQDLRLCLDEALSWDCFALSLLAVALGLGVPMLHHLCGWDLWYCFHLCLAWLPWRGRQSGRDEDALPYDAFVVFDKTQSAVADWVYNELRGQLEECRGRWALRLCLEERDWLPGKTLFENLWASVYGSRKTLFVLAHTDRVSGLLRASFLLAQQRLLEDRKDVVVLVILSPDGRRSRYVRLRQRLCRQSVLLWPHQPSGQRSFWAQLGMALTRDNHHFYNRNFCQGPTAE
Protocol: Toll-Like Receptor (TLR), NOD-Like Receptor (NLR) and C-Type Lectin Receptor (CLR) stimulation were tested by assessing NF-κB activation in HEK293 cells expressing a given TLR, NLR or CLR. The activity of the test articles was tested at one concentration and compared to control ligands. These steps were performed in triplicate. hTLR9: CpG ODN 2006 at 1 μg/mL Antagonist: 500 ng/mL. In a 96-well plate (200 μL total volume) containing the appropriate cells (50,000-75,000 cells/well), 20 μL of the test article or the positive control ligand was added to the wells. For the antagonist assay, the test article was incubated with the cells, at 37° C. with 5% CO2, for 30 minutes prior to the addition of the positive control ligand to the wells. The media added to the wells was designed for the detection of NF-κB induced SEAP expression. After a 16-24 hr incubation the optical density (OD) was read at 650 nm on a Molecular Devices SpectraMax 340PC absorbance detector. Fold induction (ratio of average induced value to average non-induced value) was determined for each TLR, NOD1, NOD2, Dectin-1a, Dectin-1b.

T1 sequence (O60602 21-858): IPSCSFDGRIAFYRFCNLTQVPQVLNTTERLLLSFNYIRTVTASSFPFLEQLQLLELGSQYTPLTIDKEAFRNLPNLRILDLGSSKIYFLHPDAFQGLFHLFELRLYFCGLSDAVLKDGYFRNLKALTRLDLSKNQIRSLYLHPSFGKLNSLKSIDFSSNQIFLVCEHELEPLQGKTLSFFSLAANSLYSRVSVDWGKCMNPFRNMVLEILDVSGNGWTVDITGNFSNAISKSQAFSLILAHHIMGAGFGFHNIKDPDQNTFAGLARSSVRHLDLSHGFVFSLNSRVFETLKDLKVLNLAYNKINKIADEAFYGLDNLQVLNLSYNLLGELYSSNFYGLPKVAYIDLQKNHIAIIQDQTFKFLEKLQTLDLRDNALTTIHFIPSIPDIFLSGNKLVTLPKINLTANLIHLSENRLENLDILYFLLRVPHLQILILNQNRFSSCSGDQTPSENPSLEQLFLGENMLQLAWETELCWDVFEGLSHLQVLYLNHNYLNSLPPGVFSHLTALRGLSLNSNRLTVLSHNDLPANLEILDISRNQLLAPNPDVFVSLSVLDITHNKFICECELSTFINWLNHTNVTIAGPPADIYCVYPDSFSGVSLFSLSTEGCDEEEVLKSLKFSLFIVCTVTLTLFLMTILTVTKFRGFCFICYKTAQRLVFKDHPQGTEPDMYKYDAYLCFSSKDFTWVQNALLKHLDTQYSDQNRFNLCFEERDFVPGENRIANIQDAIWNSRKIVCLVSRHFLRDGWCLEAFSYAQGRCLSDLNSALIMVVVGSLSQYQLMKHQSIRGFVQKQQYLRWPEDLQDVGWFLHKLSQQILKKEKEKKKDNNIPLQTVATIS

Row | Structure (SMILES) | Fold Induction (hTLR5) | Fold Induction (hTLR9) | Fold Induction (hTLR5; listed as Ami)
1 | CNCCC=C1c2ccccc2CCc2ccccc21 [Nortriptyline] | 34 | slight inhibitory effect | 
2 | CN(C)CCC=C1c2ccccc2CCc2ccccc21 [Amitriptyline] | slight inhibitory effect | slight inhibitory effect | 33

— patent publication US11400059B2, “Treatment of pain and/or pain related symptoms associated with dysmenorrhea” (ALYRA BIOTECH PTY LTD, priority 2017, dated 2022)
